According to patent US20240027450A1, “COMPOSITIONS AND METHODS FOR […]-COV-2 (COVID-19) AND FOR […]-COV-2-[…] IMM[…]” (QIAGEN SCIENCES LLC, priority 2020, published 2024):

Test system: T cells in whole blood samples
Assay: IFN-γ release (QuantiFERON SARS-CoV-2 tubes, ELISA) in whole blood of vaccinated donors, Example 2
Assay type: cell-based, human

Substance: phytohemagglutinin [Mit]
- IFN-γ, Nil-subtracted (Donor 1, Day 4 after first dose of vaccine): 7.19 IU/mL
- IFN-γ, Nil-subtracted (Donor 1, Day 11 after first dose of vaccine): >10 IU/mL
- IFN-γ, Nil-subtracted (Donor 2, Day 4 after first dose of vaccine): 5.74 IU/mL
- IFN-γ, Nil-subtracted (Donor 2, Day 11 after first dose of vaccine): >10 IU/mL
- IFN-γ, Nil-subtracted (Donor 3, Day 4 after first dose of vaccine): 7.07 IU/mL
- IFN-γ, Nil-subtracted (Donor 3, Day 11 after first dose of vaccine): >10 IU/mL
- IFN-γ, Nil-subtracted (Donor 4, Day 4 after first dose of vaccine): 5.78 IU/mL
- IFN-γ, Nil-subtracted (Donor 4, Day 11 after first dose of vaccine): >10 IU/mL
- IFN-γ, Nil-subtracted (Donor 5, Day 4 after first dose of vaccine): 7.13 IU/mL
- IFN-γ, Nil-subtracted (Donor 5, Day 11 after first dose of vaccine): >10 IU/mL
- IFN-γ, Nil-subtracted (Donor 6, Day 4 after first dose of vaccine): 6.59 IU/mL
- IFN-γ, Nil-subtracted (Donor 6, Day 11 after first dose of vaccine): >10 IU/mL
- IFN-γ, Nil-subtracted (Donor 7, Day 4 after first dose of vaccine, […]): 3.01 IU/mL
- IFN-γ, Nil-subtracted (Donor 7, Day 11 after first dose of vaccine): >10 IU/mL
- IFN-γ, Nil-subtracted (Donor 8, Day 7 after first dose of vaccine): 7.13 IU/mL
- IFN-γ, Nil-subtracted (Donor 9, Day 0 after first dose of vaccine): 6.19 IU/mL
- IFN-γ, Nil-subtracted (Donor 9, Day 7 after first dose of vaccine): >10 IU/mL
- IFN-γ, Nil-subtracted (Donor 10, Day 7 (Second Dose)): >10 IU/mL
- IFN-γ, Nil-subtracted (Donor 10, Day 22 (First-dose)): >10 IU/mL
